Results from article PMC7351617 (Journal of neurochemistry, 2020).

Tested on: rat adrenal chromaffin cells (native α3β4* / α3β2β4 nAChRs)

## CC[C@H](C)[C@@H]1NC(=O)[C@@H]2CCCN2C(=O)[C@H](CO)NC(=O)[C@H](CCSC)NC(=O)[C@H](C)NC(=O)[C@H](CO)NC(=O)[C@@H]2CSSC[C@H](NC(=O)CN)C(=O)N[C@@H](CSSC[C@@H](C(N)=O)NC1=O)C(=O)N[C@@H](CO)C(=O)N[C@@H](Cc1c[nH]cn1)C(=O)N1CCC[C@H]1C(=O)N[C@@H](C(C)C)C(=O)N2 [TxID]
  Hill slope: −1.1
  inhibition of the ACh-evoked currents: ~ 97%
36 h
  IC50: 7 nM
SD
  ACh-evoked current amplitude in the presence of TxID: −50 ± 24 pA
  ACh-evoked current amplitude in the presence of TxID alone: −45 ± 26 pA
  ACh-evoked currents in the presence of TxID, % of controls: 3 ± 1%
